According to ChEMBL document CHEMBL1201862, “PubChem BioAssay data set” (2004):
Active and inactive are the calls of the source.

Tests used:
[1] = molecular target: T1, Voltage-gated N-type calcium channel alpha-1B subunit/Amyloid beta A4 precursor protein-binding family A member 1 (Homo sapiens, UniProt Q00975+Q02410); assay type: protein assay
[2] = molecular target: T1, Voltage-gated N-type calcium channel alpha-1B subunit/Amyloid beta A4 precursor protein-binding family A member 1; assay type: protein assay; remark: listed apart in the source
[3] = molecular target: T2, Short transient receptor potential channel 4 (Mus musculus, UniProt Q9QUQ5); assay: block of DAMGO-driven TRPC4 calcium entry – cell-based, HEK293 TRPC4/mu-opioid, Fluo-4 calcium, dose response (AID 434942); assay type: functional;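 also: potency of inhibitors blocking the TRPC4 calcium response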
T2 sequence (Q9QUQ5 whole entry): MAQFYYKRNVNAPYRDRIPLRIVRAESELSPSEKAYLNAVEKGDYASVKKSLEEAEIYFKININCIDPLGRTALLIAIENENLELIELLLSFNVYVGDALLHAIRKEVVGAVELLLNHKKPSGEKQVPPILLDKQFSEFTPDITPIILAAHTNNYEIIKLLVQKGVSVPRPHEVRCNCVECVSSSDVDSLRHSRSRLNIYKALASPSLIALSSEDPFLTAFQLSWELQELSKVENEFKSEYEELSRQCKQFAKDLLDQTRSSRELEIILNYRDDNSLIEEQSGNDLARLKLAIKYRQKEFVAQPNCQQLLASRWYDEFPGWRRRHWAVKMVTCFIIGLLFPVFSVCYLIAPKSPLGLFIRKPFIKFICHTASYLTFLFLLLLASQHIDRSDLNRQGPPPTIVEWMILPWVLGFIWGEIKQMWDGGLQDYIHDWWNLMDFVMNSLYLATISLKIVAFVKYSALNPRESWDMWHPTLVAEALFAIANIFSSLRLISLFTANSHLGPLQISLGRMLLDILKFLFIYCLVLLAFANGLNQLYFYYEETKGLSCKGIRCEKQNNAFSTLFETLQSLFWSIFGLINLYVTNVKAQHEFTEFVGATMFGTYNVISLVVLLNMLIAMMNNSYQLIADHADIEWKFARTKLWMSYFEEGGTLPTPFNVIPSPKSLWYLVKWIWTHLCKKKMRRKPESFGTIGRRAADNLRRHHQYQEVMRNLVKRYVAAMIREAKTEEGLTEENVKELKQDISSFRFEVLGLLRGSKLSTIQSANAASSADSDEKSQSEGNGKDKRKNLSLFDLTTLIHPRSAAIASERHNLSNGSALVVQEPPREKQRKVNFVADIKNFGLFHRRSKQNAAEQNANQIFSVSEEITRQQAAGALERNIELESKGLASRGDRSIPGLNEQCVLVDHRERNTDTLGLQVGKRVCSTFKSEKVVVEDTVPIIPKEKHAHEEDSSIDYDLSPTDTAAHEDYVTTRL

Vero = assay: cells; assay type: functional, cell-based; details: Chlorocebus sabaeus
[4] = molecular target: Glyceraldehyde-3-phosphate dehydrogenase (Homo sapiens, UniProt P04406)
Sequence of Glyceraldehyde-3-phosphate dehydrogenase (P04406 whole entry): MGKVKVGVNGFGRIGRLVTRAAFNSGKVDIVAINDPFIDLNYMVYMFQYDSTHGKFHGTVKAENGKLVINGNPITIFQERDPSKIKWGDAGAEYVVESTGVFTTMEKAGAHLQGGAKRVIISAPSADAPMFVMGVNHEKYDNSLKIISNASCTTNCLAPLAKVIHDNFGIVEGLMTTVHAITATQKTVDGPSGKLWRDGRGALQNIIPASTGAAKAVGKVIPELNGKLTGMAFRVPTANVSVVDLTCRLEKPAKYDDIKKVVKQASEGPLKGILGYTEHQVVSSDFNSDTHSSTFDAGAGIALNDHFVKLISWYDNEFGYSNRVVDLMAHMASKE

[5] = molecular target: Alkaline phosphatase, placental type (Homo sapiens, UniProt P05187); assay: human placental alkaline phosphatase inhibition – biochemical, luminescence, confirmation (AID 1512); assay type: functional
Sequence of Alkaline phosphatase, placental type (P05187 whole entry): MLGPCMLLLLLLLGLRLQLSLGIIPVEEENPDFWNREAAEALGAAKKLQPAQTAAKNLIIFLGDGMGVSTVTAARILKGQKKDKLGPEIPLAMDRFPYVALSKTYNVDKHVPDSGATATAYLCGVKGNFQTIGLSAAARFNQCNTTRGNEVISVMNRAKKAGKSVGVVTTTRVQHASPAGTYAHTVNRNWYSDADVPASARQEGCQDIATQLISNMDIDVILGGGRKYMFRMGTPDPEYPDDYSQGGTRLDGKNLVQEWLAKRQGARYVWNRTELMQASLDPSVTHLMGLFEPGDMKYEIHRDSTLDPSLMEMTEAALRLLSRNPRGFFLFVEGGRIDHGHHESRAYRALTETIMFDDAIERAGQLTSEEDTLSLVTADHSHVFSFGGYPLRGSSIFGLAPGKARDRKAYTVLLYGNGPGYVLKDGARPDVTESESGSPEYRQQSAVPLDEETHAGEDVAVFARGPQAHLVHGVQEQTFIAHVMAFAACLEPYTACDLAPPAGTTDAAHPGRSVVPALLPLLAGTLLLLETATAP

[6] = molecular target: T3, Alkaline phosphatase, tissue-nonspecific isozyme (Homo sapiens, UniProt P05186); assay: potency against alkaline phosphatase TNAP – biochemical, luminescent, dose response, SAR follow-up (AID 1056)
T3 sequence (P05186 whole entry): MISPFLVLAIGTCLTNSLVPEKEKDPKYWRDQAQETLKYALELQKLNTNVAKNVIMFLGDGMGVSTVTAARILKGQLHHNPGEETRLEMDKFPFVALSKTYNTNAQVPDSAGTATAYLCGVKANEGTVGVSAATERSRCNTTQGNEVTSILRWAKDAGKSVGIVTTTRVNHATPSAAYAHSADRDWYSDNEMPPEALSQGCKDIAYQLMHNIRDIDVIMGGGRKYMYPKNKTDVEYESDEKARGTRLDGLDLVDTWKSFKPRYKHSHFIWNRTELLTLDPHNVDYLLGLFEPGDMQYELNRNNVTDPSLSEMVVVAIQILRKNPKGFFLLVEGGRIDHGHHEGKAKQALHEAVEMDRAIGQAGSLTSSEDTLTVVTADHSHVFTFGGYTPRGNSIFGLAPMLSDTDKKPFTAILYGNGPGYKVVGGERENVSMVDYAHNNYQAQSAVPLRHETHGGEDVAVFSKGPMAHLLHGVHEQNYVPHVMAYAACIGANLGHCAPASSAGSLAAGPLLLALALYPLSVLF

[7] = molecular target: T2, Short transient receptor potential channel 4; assay: calcium entry via TRPC4 opening agents – cell-based, HEK293 TRPC4/mu-opioid, Fluo-4 calcium, dose response (AID 434937); assay type: functional
[8] = Trypanosoma cruzi growth suppression in host cells – NIH3T3 host cells, beta-gal luminescence, confirmation (AID 2044); assay type: functional, cell-based;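 also: intracellular parasites grown in NIH/3T3 mouse fibroblasts as host cells; luminescent beta-galactosidase reporter signal from transgenic T. cruzi replicating inside host cells; inhibitors lower the luminescence signal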
[9] = NIH3T3 cell viability loss – ATP luminescence, mouse fibroblasts, counter-screen, dose response (AID 2010); assay type: functional, cell-based;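 also: cells exposed to compound for about 90 hours before reading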
[10] = molecular target: T4, Replicative DNA helicase DnaB (Mycobacterium tuberculosis, UniProt P9WMR3); assay: DnaB intein splicing inhibitors, dose response, biochemical, cell-free fluorescence (AID 449749); assay type: functional
T4 sequence (P9WMR3 whole entry): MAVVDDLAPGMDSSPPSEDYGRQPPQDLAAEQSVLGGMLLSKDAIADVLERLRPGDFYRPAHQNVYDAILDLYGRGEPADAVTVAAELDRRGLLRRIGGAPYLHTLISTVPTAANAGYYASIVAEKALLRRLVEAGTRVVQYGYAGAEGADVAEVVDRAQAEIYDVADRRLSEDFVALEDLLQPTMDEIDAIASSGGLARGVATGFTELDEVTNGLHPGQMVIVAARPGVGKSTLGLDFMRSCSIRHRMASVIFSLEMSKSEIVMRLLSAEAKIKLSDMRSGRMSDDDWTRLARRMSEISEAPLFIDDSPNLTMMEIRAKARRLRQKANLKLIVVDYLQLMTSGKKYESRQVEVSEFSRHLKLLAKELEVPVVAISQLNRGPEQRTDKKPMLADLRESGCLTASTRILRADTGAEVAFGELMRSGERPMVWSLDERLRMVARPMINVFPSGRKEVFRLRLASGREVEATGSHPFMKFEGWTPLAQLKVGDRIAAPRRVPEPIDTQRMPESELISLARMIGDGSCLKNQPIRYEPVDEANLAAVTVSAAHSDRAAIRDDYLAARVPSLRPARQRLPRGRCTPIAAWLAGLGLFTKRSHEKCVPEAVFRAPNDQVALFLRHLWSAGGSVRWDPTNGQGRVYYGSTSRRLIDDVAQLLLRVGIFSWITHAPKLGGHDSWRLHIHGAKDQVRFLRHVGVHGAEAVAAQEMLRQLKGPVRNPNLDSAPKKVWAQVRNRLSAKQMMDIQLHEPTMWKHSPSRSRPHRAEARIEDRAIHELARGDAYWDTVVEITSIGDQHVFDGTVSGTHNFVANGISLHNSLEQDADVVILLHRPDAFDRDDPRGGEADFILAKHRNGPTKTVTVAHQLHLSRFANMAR

Protein RecA = molecular target: T5, Protein RecA (Mycobacterium tuberculosis, UniProt P9WHJ3); assay: Fluorescence Cell-Free Homogeneous Dose Retest to Identify Inhibitors of RecA-Intein Splicing Activity. [Related pubchem assays (depositor defined):AID2097, AID2223, AID489010, AID492950]; assay type: functional
T5 sequence (P9WHJ3 whole entry): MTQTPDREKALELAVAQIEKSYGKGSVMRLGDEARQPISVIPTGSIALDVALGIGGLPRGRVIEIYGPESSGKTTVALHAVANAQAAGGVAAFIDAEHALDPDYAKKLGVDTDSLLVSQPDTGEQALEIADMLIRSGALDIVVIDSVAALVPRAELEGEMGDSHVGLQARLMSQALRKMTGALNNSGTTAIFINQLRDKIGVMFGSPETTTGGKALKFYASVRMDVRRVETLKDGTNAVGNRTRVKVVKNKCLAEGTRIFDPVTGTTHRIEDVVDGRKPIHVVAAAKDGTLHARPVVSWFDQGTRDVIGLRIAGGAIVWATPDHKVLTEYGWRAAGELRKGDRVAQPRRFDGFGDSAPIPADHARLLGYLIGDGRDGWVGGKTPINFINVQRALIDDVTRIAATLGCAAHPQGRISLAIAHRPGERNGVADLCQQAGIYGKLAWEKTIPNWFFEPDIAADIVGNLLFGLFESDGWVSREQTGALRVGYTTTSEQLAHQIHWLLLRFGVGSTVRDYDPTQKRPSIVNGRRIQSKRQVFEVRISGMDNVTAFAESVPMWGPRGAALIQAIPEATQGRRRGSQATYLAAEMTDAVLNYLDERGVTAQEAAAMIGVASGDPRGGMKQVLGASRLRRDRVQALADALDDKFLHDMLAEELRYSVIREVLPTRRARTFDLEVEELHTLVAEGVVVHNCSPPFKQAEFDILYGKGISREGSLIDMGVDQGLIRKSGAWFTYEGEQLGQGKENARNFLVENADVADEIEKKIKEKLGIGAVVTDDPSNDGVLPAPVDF

T1 sequence (Q00975 whole entry): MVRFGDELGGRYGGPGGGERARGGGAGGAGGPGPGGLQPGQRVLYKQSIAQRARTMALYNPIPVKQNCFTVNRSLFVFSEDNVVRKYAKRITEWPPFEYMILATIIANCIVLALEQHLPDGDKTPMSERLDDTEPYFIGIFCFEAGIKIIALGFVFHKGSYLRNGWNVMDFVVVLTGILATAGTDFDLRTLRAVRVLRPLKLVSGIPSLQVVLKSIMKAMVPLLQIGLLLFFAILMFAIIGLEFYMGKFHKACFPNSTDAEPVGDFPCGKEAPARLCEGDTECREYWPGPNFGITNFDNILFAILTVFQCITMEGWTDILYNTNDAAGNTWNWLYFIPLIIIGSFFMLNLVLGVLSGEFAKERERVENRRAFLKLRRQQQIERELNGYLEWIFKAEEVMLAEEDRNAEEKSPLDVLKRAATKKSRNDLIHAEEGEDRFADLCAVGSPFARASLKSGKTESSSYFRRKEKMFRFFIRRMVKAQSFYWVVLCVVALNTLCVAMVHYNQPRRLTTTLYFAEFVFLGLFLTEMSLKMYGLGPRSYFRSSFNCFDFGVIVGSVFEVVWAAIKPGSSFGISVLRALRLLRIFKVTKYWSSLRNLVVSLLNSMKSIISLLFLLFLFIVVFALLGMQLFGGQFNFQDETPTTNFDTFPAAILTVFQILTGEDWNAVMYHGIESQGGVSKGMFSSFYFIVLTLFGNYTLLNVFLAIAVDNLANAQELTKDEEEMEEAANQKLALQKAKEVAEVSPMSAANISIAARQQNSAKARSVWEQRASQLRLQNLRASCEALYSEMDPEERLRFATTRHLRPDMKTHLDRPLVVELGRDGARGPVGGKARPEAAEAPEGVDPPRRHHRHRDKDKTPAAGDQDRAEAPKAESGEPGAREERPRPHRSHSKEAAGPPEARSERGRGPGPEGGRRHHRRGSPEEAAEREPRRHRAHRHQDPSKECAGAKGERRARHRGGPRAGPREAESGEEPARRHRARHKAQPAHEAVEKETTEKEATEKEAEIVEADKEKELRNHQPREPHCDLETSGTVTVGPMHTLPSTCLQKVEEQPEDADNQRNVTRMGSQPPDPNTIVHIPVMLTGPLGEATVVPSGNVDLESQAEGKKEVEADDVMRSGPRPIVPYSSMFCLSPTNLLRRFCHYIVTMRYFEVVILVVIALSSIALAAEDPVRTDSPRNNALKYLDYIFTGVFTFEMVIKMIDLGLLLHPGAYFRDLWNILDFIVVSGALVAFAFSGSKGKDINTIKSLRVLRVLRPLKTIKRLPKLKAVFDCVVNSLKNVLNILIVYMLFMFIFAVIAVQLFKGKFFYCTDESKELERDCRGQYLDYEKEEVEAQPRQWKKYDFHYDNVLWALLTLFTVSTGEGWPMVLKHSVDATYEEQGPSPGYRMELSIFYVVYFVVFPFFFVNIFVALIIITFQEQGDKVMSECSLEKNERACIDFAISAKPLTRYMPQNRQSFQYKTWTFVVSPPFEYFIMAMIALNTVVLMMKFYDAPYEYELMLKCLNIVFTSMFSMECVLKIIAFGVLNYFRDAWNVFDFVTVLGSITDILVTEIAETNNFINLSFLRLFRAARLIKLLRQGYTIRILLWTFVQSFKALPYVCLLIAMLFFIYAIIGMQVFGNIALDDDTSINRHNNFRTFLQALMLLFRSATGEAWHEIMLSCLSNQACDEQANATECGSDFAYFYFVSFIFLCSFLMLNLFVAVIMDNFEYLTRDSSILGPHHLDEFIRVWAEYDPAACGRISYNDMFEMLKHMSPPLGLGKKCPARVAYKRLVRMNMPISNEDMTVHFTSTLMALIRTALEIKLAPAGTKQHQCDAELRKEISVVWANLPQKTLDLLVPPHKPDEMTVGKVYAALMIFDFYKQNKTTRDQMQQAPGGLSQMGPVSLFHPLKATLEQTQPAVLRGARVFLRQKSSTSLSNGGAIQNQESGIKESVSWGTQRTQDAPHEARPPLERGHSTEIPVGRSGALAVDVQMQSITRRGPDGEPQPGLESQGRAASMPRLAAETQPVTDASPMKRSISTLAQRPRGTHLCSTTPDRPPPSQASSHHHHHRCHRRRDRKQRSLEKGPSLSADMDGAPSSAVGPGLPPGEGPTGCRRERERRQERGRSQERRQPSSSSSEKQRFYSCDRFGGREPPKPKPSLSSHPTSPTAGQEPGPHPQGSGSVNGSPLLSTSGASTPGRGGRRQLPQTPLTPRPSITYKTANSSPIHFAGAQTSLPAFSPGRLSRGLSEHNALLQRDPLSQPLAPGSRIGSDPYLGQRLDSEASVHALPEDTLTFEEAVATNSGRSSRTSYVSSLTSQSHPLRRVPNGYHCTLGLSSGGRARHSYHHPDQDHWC
T1 sequence (Q02410 whole entry): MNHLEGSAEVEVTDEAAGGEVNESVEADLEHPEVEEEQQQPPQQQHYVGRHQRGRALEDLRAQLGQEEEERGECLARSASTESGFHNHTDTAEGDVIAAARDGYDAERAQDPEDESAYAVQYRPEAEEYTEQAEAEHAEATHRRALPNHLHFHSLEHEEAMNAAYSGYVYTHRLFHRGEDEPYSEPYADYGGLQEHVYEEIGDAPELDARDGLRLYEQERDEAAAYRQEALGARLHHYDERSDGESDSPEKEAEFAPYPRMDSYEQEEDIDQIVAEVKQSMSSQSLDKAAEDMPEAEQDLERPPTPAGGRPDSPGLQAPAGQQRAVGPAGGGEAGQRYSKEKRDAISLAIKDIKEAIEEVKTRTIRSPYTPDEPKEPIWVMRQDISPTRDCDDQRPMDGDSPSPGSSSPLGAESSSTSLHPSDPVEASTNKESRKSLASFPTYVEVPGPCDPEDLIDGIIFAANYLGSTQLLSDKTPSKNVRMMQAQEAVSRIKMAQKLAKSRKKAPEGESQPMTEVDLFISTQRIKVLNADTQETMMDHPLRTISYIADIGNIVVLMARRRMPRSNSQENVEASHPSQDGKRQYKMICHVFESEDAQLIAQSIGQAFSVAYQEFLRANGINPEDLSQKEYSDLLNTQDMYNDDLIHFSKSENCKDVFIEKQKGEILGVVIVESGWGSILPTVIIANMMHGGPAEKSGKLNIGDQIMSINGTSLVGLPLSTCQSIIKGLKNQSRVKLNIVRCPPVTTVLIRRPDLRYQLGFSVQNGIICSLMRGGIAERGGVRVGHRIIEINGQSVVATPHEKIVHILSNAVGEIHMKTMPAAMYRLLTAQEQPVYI

| SMILES | EC50 [3] | IC50 [4] | IC50 [5] | IC50 [6] | also measured |
| --- | --- | --- | --- | --- | --- |
| O=C(O)Cc1sc(Nc2ccc(Cl)cc2)nc1-c1cccs1 | – | – | – | – | IC50 [1]: 16 µM (active); IC50 [2]: > 50 µM (inactive) |
| O=C(Cc1cccc2ccccc12)Nc1ccc(Br)cc1C(=O)O | 5.96 µM (active) | – | – | – | IC50 (Vero): > 25 µM (active) |
| CC1(C)CC(=O)c2c(-c3ccc(Cl)cc3)n[nH]c2C1 | – | > 100 µM (not active) | > 100 µM (inactive) | 5.02 µM (active) | – |
| Nc1nnc(-c2ccc(Cl)cc2)[nH]1 | – | > 100 µM (not active) | > 100 µM (inactive) | 24.5 µM (active) | – |
| CN1CSC2=C(C#N)C(c3cccc(OCc4ccccc4)c3)CC(=O)N2C1 (configuration not stated) | – | – | – | – | IC50 [1]: 7.59 µM (active); IC50 [2]: 47.6 µM (active) |
| Cc1ccccc1C(=O)Nc1c(C(=O)N(CCN(C)C)Cc2ccco2)oc2ccccc12 | 0.473 µM (active) | – | – | – | EC50 [7]: 4.22 µM (active) |
| COc1ccccc1/C=C/CN1CCCC(CCC(=O)NCc2ccc(F)c(F)c2)C1 (configuration not stated) | – | – | – | – | EC50 [8]: < 100 nM (active); EC50 [9]: > 60 µM (not active); EC50 [7]: 0.168 µM (active); EC50 (cells): 43 nM (active) |
| COc1ccc(-c2n[nH]c3c2C(=O)CC(C)(C)C3)cc1 | – | > 100 µM (not active) | > 100 µM (inactive) | 3.57 µM (active) | – |
| Cn1ncc2c1ncn1c(-c3ccc(Cl)cc3Cl)nnc21 | – | > 100 µM (not active) | > 100 µM (inactive) | > 100 µM (inactive) | – |
| Cc1[nH]n(C)c(=O)c1C(=O)c1c(-c2c(Cl)cccc2Cl)noc1C | 4.22 µM (active) | – | – | – | AC50 [10]: 5.13 µM (active); EC50 (Protein RecA): 1.71 µM (active) |
